In US20110098352A1, “N,N-DISUBSTITUTED AMINOALKYLBIPHENYL ANTAGONISTS OF PROSTAGLANDIN D2 RECEPTORS” (AMIRA PHARMACEUTICALS, INC., priority 2008, published 2011):

What was measured:
human DP2 receptor = target: T1, human DP2 receptor (Homo sapiens, UniProt Q9Y5Y4); assay: DP2/CRTH2 radioligand binding assay using [3H]PGD2; conditions: [3H]PGD2 binding, membranes of HEK293 cells expressing recombinant human DP2; read-out: hDP2
T1 construct: expressed in transfected cells
T1 sequence (Q9Y5Y4 1-395): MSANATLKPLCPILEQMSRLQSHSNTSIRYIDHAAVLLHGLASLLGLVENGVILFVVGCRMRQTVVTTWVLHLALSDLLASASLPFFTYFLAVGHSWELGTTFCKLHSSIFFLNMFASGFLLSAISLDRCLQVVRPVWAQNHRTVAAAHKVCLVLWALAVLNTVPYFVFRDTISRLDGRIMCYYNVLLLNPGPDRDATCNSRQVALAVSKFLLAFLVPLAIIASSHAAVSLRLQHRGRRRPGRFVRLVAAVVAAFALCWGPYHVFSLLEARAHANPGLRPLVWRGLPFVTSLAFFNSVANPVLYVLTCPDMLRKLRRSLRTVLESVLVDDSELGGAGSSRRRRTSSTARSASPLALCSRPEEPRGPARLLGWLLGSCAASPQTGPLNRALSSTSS
Protocol: The ability of a compound to bind to the human DP2 receptor is assessed via a radioligand binding assay using [^3H]PGD2. HEK293 cells stably expressing recombinant human DP2 are resuspended in 10 mM Hepes, 7.4 containing 1 mM DTT, lysed and centrifuged at 75,000×g to pellet the membranes. The membranes are resuspended in 10 mM Hepes, 7.4 containing 1 mM DTT and 10% glycerol to approximately 5 mg protein/ml. Membranes (2-10 μg protein/well) are incubated in 96-well plates with 1 nM [^3H]PGD2 and test compound in Assay Buffer (50 mM Hepes, 10 mM MnCl2, 1 mM EDTA, plus or minus 0.2% human serum albumin, pH 7.4) for 60 minutes at room temperature. The reactions are terminated by rapid filtration through Whatman GF/C glass fibre filter plates. The filter plates were pre-soaked in 0.33% polythylenimine for 30 minutes at room temperature then washed in Wash Buffer (50 mM Hepes, 0.5 M NaCl pH 7.4) prior to harvesting. After harvesting, the filter plates are washed 3 times with 1 ml cold Wash Buffer then dried. Scintillant is then added to the plates and the radioactivity retained on the filters is determined on a Packard TopCount (Perkin Elmer). Specific binding is determined as total radioactive binding minus non-specific binding in the presence of 10 μM PGD2. IC50s were determined using GraphPad prism analysis of drug titration curves.

human DP1 receptor = target: T2, human DP1 receptor (Homo sapiens, UniProt Q13258); assay: DP1 radioligand membrane binding assay using [3H]BWA868C; conditions: [3H]BWA868C binding, human platelet membranes; read-out: hDP1
T2 construct: tissue Biological Specialty Corporation; host or cells: human platelets, membranes
T2 sequence (Q13258 1-359): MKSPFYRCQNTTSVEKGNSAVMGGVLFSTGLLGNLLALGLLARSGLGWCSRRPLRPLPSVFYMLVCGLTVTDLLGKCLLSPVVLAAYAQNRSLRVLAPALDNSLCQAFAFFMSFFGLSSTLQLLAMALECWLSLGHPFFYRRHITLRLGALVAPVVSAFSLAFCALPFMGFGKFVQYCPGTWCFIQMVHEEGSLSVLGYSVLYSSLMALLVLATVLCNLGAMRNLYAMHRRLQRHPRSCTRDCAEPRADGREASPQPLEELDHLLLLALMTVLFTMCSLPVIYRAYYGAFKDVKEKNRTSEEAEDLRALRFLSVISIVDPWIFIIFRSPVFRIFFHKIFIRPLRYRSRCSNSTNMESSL
Protocol: The ability of a compound to bind to the human DP1 receptor was evaluated via a radioligand membrane binding assay using the DP1 selective synthetic ligand [^3H]BWA868C. Packed human platelets (Biological Specialty Corporation), were resuspended in 6 volumes of Hepes/HBSS buffer (10 mM Hepes, 1 mM DTT in Hanks Balanced Salt Solution (HBSS)), lysed and centrifuged at 75,000×g to pellet the membranes. Membranes were resuspended in Hepes/HBSS buffer to approximately 12 mg protein/ml. Membranes (20 μg protein/well) are incubated in 96-well plates with 2 nM [^3H]BWA868C and test compound in Assay Buffer (50 mM Hepes, 10 mM MnCl2, 1 mM EDTA, plus or minus 0.2% human serum albumin, pH 7.4) for 60 minutes at room temperature. The reactions are terminated by rapid filtration through Whatman GF/C glass fibre filter plates. The filter plates were pre-soaked in […] polethylenimine for 30 minutes at room temperature then washed in Wash Buffer (50 mM Hepes, 0.5 M NaCl pH 7.4) prior to harvesting. After harvesting, the filter plates are washed 3 times with 1 ml cold Wash Buffer then dried. Scintillant is then added to the plates and the radioactivity retained on the filters is determined on a Packard TopCount (Perkin Elmer). Specific binding is determined as total radioactive binding minus non-specific binding in the presence of 10 μM BWA868C. IC50s were determined using GraphPad prism analysis of drug titration curves.

[1] = target: T3, recombinant human CRTH2 receptor (Homo sapiens, UniProt Q9Y5Y4); assay: GTPγS binding assay; assay type: biochemical; conditions: +HSA; CHO cell membranes, 80 nM PGD2; read-out: hDP2 GTPγS μM (+HSA)
T3 construct: expressed in transfected cells
T3 sequence (Q9Y5Y4 1-395): T1 sequence (Q9Y5Y4 1-395)
Protocol: The ability of a compound to inhibit binding of GTP to DP2 is assessed via a membrane GTPγS assay. CHO cells stably expressing the recombinant human CRTH2 receptor are resuspended in 10 mM Hepes, 7.4 containing 1 mM DTT, lysed and centrifuged at 75,000×g to pellet the membranes. The membranes are resuspended in 10 mM Hepes, 7.4 containing 1 mM DTT and 10% glycerol. […] The reactions are terminated by rapid filtration through Whatman GF/B glass fibre filter plates. The filter plates are washed 3 times with 1 ml cold Assay Buffer and dried. Scintillant is then added to the plates and the radioactivity retained on the filters is determined on a Packard TopCount (Perkin Elmer). Specific binding is determined as total radioactive binding minus non-specific binding in the absence of the ligand (80 nM PGD2). IC50s were determined using Graphpad prism analysis of drug titration curves.

Compound | IC50 (human DP2 receptor) [nM] | IC50 (human DP1 receptor) [nM] | IC50 [1] [µM]
CN(Cc1cc(C(F)(F)F)ccc1-c1cc(CC(=O)O)ccc1F)C(=O)OCc1ccccc1 [Compound 1-29, {2′-[(Benzyloxycarbonyl-methyl-amino)-methyl]-6-fluoro-4′-trifluoromethyl-biphenyl-3-yl}-acetic acid] | < 300 | > 1000 | < 0.3
CCN(Cc1cc(C(F)(F)F)ccc1-c1cc(CC(=O)O)ccc1OC)C(=O)OCc1ccccc1Cl [Compound 1-39, (2′-{[(2-Chloro-benzyloxycarbonyl)-ethyl-amino]-methyl}-6-methoxy-4′-trifluoromethyl-biphenyl-3-yl)-acetic acid] | < 300 | > 1000 | < 0.3
CCN(Cc1cc(C(F)(F)F)ccc1-c1cc(CC(=O)O)ccc1OC)C(=O)OCc1cc(F)cc(F)c1 [Compound 1-40, (2′-{[(3,5-Difluoro-benzyloxycarbonyl)-ethyl-amino]-methyl}-6-methoxy-4′-trifluoromethyl-biphenyl-3-yl)-acetic acid] | < 300 | > 1000 | < 0.3
CCN(Cc1cc(C(F)(F)F)ccc1-c1cc(CC(=O)O)ccc1OC)C(=O)OC(C)c1ccc(Cl)cc1 (stereo not drawn) [Compound 1-44, [2′-({[1-(4-Chloro-phenyl)-ethoxycarbonyl]-ethyl-amino)-methyl)-6-methoxy4′-trifluoromethyl-biphenyl-3-yl]-acetic acid] | < 300 | > 1000 | < 0.3
CCN(Cc1cc(C(F)(F)F)ccc1-c1cc(CC(=O)O)ccc1OC)C(=O)C(C)Oc1ccccc1 (stereo not drawn) [Compound 1-45, (2′-{[Ethyl-(2-phenoxy-propionyl)-amino]-methyl}-6-methoxy-4′-trifluoromethyl-biphenyl-3-yl)-acetic acid] | < 300 | > 1000 | < 0.3
CCN(Cc1cc(C(F)(F)F)ccc1-c1cc(CC(=O)O)ccc1OC)C(=O)COc1ccccc1 [Compound 1-48, (2′-{[Ethyl-(2-phenoxy-acetyl)-amino]-methyl}-6-methoxy-4′-trifluoromethyl-biphenyl-3-yl)-acetic acid] | < 300 | > 1000 | < 0.3
CCN(Cc1cc(C(F)(F)F)ccc1-c1cc(CC(=O)O)ccc1OC)C(=O)COCc1ccccc1 [Compound 1-92, (2′-{[(2-Benzyloxy-acetyl)-ethyl-amino]-methyl}-6-methoxy-4′-trifluoromethyl-biphenyl-3-yl)-acetic acid] | < 300 | > 1000 | < 0.3
CCN(Cc1cc(C(F)(F)F)ccc1-c1cc(CC(=O)O)ccc1OC)C(=O)COc1ccc(Cl)cc1 [Compound 1-93, [2′-({[2-(4-Chloro-phenoxy)-acetyl]-ethyl-amino}-methyl)-6-methoxy-4′-trifluoromethyl-biphenyl-3-yl]-acetic acid] | < 300 | > 1000 | < 0.3

Second part, the compound after the results:

IC50 (human DP2 receptor) [nM] | IC50 (human DP1 receptor) [nM] | IC50 [1] [µM] | Compound
< 300 | > 1000 | < 0.3 | CCN(Cc1cc(C(F)(F)F)ccc1-c1cc(CC(=O)O)ccc1OC)C(=O)OC [Compound 1-23, {2′-[(Ethyl-methoxycarbonyl-amino)-methyl]-6-methoxy-4′-trifluoromethyl-biphenyl-3-yl}-acetic acid]
< 300 | > 1000 | < 0.3 | COc1ccc(CC(=O)O)cc1-c1ccc(C(F)(F)F)cc1CN(C)C(=O)OCc1ccccc1 [Compound 1-27, {2′-[(Benzyloxycarbonyl-methyl-amino)-methyl]-6-methoxy-4′-trifluoromethyl-biphenyl-3-yl)-acetic acid]
< 300 | > 1000 | < 0.3 | COc1ccc(CC(=O)O)cc1-c1ccc(C(F)(F)F)cc1CN(C(C)=O)C1CCC1 [Compound 1-30, {2′-[(Acetyl-cyclobutyl-amino)-methyl]-6-methoxy-4′-trifluoromethyl-biphenyl-3-yl}-acetic acid]
< 300 | > 1000 | < 0.3 | COc1ccc(CC(=O)O)cc1-c1ccc(C(F)(F)F)cc1CN(C(C)=O)C1CCCC1 [Compound 1-31, {2′-[(Acetyl-cyclopentyl-amino)-methyl]-6-methoxy-4′-trifluoromethyl-biphenyl-3-yl}-acetic acid]
< 300 | > 1000 | < 0.3 | CCN(Cc1cc(C(F)(F)F)ccc1-c1cc(CC(=O)O)ccc1OC)C(=O)C(F)(F)F [Compound 1-32, (2′-{[Ethyl-(2,2,2-trifluoro-acetyl)-amino]-methyl}-6-methoxy-4′-trifluoromethyl-biphenyl-3-yl)-acetic acid]
< 300 | 300 to 1000 | < 0.3 | COc1ccc(CC(=O)O)cc1-c1ccc(C(F)(F)F)cc1CN(C(=O)OCc1ccccc1)C1CCCC1 [Compound 1-35, {2′-[(Benzyloxycarbonyl-cyclopentyl-amino)-methyl]-6-methoxy-4′-trifluoromethyl-biphenyl-3-yl}-acetic acid]
< 300 | > 1000 | < 0.3 | CCN(Cc1cc(C(F)(F)F)ccc1-c1cc(CC(=O)O)ccc1OC)C(=O)OCc1ccc(Cl)cc1 [Compound 1-42, (2′-{[(4-Chloro-benzyloxycarbonyl)-ethyl-amino]-methyl}-6-methoxy-4′-trifluoromethyl-biphenyl-3-yl)-acetic acid]
< 300 | > 1000 | < 0.3 | CCN(Cc1cc(C(F)(F)F)ccc1-c1cc(CC(=O)O)ccc1OC)C(=O)OCc1cccc(Cl)c1 [Compound 1-43, (2′-{[(3-Chloro-benzyloxycarbonyl)-ethyl-amino]-methyl}-6-methoxy-4′-trifluoromethyl-biphenyl-3-yl)-acetic acid]
< 300 | > 1000 | < 0.3 | CCN(Cc1cc(C(F)(F)F)ccc1-c1cc(CC(=O)O)ccc1OC)C(=O)COC [Compound 1-46, (2′-{[Ethyl-(2-methoxy-acetyl)-amino]-methyl}-6-methoxy-4′-trifluoromethyl-biphenyl-3-yl)-acetic acid]
